Assay results from publication PMC10288505, “Photoswitchable Calixarene Activators for Controlled Peptide Transport across Lipid Membranes” (Journal of the American Chemical Society, 2023).

Assays:
[1] = Fluorescence titration of lucigenin dye with calixarene host (1:1 binding model); details: association constant, 1:1 host:guest model, 5 mM phosphate buffer pH 7.3, mean ± SD of triplicate
Excerpt: (§1) The binding affinity of the anionic calixarene activators toward cationic peptides was investigated using a small library of highly hydrophilic oligoarginines, from 3 to 8 residues. These peptides are not able to spontaneously transverse zwitterionic artificial membranes in vesicle assays, which allows the accurate evaluation of the calixarenes 1 and 2 as counterion activators without interferences from the transport of the peptide alone.[43]−[45] First, the formation of host–guest complexes between 1/2 and the selected peptides was verified by indicator displacement assays using lucigenin (LCG) as the fluorescent indicator.[46] As previously reported for other sulfonatocalixarene derivatives,[46] the formation of host–guest binding pairs between calixarenes 1/2 in the E- and Z-forms and LCG results in significant static fluorescence quenching (see Figure 2A and Figures S26 and S27). Quantitative analysis of the fluorescence titration data using a 1:1 host:guest binding model allows the determination of the respective binding constants (K) reported in Table 1. As can be observed, both 1/2 display high affinity for the LCG dye, on the 10^7 M^–1 range, which seems to be independent of the nature and conformation of the azobenzene arm. […] The host:LCG binding pairs were then employed in the above-mentioned indicator displacement assays to investigate the binding affinity of oligoarginines toward 1 and 2 (see Figure 2B and Figures S29–S33).
Figure 2 (A) Fluorescence titration of the lucigenin dye (LCG, 1.5 μM) with increasing concentrations of E-2 in water (5 mM phosphate buffer, pH 7.3). (B) Indicator displacement titration of hexaarginine (R6) using E-2:LCG as the reporter pair (5 mM phosphate buffer, pH 7.3). LCG and E-2 concentrations were fixed at 4 and 4.3 μM, respectively. […]
The binding affinities of the counterion activators and peptide complexes were analyzed by indicator displacement assays. […] Firstly, the affinity for LCG was calculated for each of the activators, by titrations followed by fluorescence spectroscopy leading to almost full quenching of the emission. […]
Figure S26 - Fluorescence titration of the lucigenin dye with increasing concentrations of A) E-1 and B) Z–1 in water (5 mM phosphate buffer pH 7.3). […]
Figure S27 - Fluorescence titrations of the lucigenin dye (LCG, 0.2 µM, except for the first E-2 titration were [LCG] = 1.5 µM ) with increasing concentrations of (A) E-2 and (B) Z-2 in water (5 mM phosphate buffer pH 7.3). […]
Figure S28 - Fluorescence titrations of the lucigenin dye (LCG, 0.2 µM) with increasing concentrations of SC4 in water (5 mM phosphate buffer pH 7.3). […]

[2] = tested on: R3; assay: Indicator displacement assay with host:LCG reporter pair, guest R3; type: binding; details: association constant, competitive dye displacement with LCG, 5 mM phosphate buffer pH 7.3, mean ± SD of triplicate
Excerpt: as §1
The binding affinities of the counterion activators and peptide complexes were analyzed by indicator displacement assays. The fluorescent dye chosen for these experiments was lucigenin (LCG) due to its complex with the receptor SC4 being well characterized and due to the high variation of emission between its bound and free form. Firstly, the affinity for LCG was calculated for each of the activators, by titrations followed by fluorescence spectroscopy leading to almost full quenching of the emission. For the competitive assays, a concentration of LCG and activator was chosen in order to have approximately 90% of complexed dye and that mixture was then titrated with each of the peptides, leading to the regaining of emission when LCG was release from the complex.
Figure S26 - Fluorescence titration of the lucigenin dye with increasing concentrations of A) E-1 and B) Z–1 in water (5 mM phosphate buffer pH 7.3). LCG concentration was fixed 0.2 µM in all experiments, except for the first E-1 titrations were [LCG]
(1 picture or pasted object on this page, not shown here)
Figure S29 - Indicator displacement titration of the several oligoarginines A) R3 B) R4 C) R6 and D) R8, using SC4:LCG as the reporter pair (5 mM phosphate buffer pH 7.3). LCG and SC4 concentrations were fixed at A) 0.22 and 0.50 µM, for all three replicates, B) 0.22 and 4.7 µM for the first titration and 0.22 and 4.3 µM for the remaining two replicates, C) 0.22 and 0.45 µM and 1.1 and 0.85 µM and D) 0.28 and 0.43 µM and 1.1 and 0.85 µM, respectively, from left to right.
Figure S30 - Indicator displacement titration of the several oligoarginines A) R3 B) R4 C) R6 and D) R8, using E-1:LCG as the reporter pair (5 mM phosphate buffer pH 7.3) LCG and E-1 concentrations were fixed at A) 0.11 and 0.25 µM, for all three replicates, B) 0.22 and 0.5 µM, for the first two titrations and 0.22 and 0.23 µM for the remaining replicate, C) 4.0 and 3.8 µM and 0.22 and 0.5 µM, D) 4 and 3 µM and 0.22 and 0.5 µM, respectively, from left to right. […]

[3] = Photochemical characterisation (UV–vis absorption, 1H NMR) and thermal Z→E isomerization; type: physicochemical; details: for Fraction of E isomer in the photostationary state (PSS): irradiation of the Z-forms at 500 nm; for Thermal stability of the Z isomer: room temperature, time frame of the experiments
Excerpt: The photochromic properties of 1 and 2 were investigated in diluted aqueous solution by UV–vis absorption spectroscopy and in CD3OD by ^1H NMR.
On the other hand, irradiation of the Z-forms at λirr = 500 nm originates a photostationary state (PSS) composed of 70 and 80% of E-1 (Φ1Z → E = 0.6) and E-2 (Φ2Z → E = 0.5), respectively (Figure 1 and Figure S23). As generally observed for other azobenzene photoswitches,[42] the E isomers can be quantitatively recovered in the dark through the thermal Z → E isomerization, with 1 and 2 presenting activation energies of 215 and 93 kJ/mol, respectively (Figures S24 and S25).

**Q.** With O=S(=O)([O-])c1cc2c(O)c(c1)Cc1cc(S(=O)(=O)[O-])cc(c1O)Cc1cc(S(=O)(=O)[O-])cc(c1OCCCCCCOc1ccc(/N=N/c3ccccc3)cc1)Cc1cc(S(=O)(=O)[O-])cc(c1O)C2.[Li+].[Li+].[Li+].[Li+] [E-1] as the compound, how does the “Apparent affinity constant K for LCG” value [1] read?
**A.** The value was “(2.5 ± 0.7) × 10^7 M^–1”.

**Q.** And the “Apparent affinity constant K for R3” value [2]?
**A.** Its value is “(2.6 ± 0.8) × 10^6 M^–1”.

**Q.** What about the “Fraction of E isomer in the photostationary state (PSS)” value [3] of the same compound?
**A.** Its value is 70%.

**Q.** With CCCCc1ccc(/N=N/c2ccc(OCCCOc3c4cc(S(=O)(=O)[O-])cc3Cc3cc(S(=O)(=O)[O-])cc(c3O)Cc3cc(S(=O)(=O)[O-])cc(c3O)Cc3cc(S(=O)(=O)[O-])cc(c3O)C4)cc2)cc1.[Li+].[Li+].[Li+].[Li+] [E-2] as the compound, how does the “Apparent affinity constant K for LCG” value [1] read?
**A.** Its value is “(2.6 ± 0.7) × 10^7 M^–1”.

**Q.** What about the “Apparent affinity constant K for R3” value [2] of the same compound?
**A.** Its value is “(4.1 ± 0.2) × 10^6 M^–1”.

**Q.** What about the “Fraction of E isomer in the photostationary state (PSS)” value [3] of the same compound?
**A.** Its value is 80%.

**Q.** Which results are given for O=S(=O)([O-])c1cc2c(O)c(c1)Cc1cc(S(=O)(=O)[O-])cc(c1O)Cc1cc(S(=O)(=O)[O-])cc(c1OCCCCCCOc1ccc(/N=N\c3ccccc3)cc1)Cc1cc(S(=O)(=O)[O-])cc(c1O)C2.[Li+].[Li+].[Li+].[Li+] [Z-1]?
**A.** Apparent affinity constant K for LCG [1]: (2.3 ± 0.4) × 10^7 M^–1; Apparent affinity constant K for R3 [2]: (2.4 ± 0.6) × 10^6 M^–1; Thermal stability of the Z isomer [3]: minimal thermal interconversion at room temperature

**Q.** What does the source list for CCCCc1ccc(/N=N\c2ccc(OCCCOc3c4cc(S(=O)(=O)[O-])cc3Cc3cc(S(=O)(=O)[O-])cc(c3O)Cc3cc(S(=O)(=O)[O-])cc(c3O)Cc3cc(S(=O)(=O)[O-])cc(c3O)C4)cc2)cc1.[Li+].[Li+].[Li+].[Li+] [Z-2]?
**A.** Apparent affinity constant K for LCG [1]: (3.4 ± 0.8) × 10^7 M^–1; Apparent affinity constant K for R3 [2]: (3.6 ± 0.3) × 10^6 M^–1; Thermal stability of the Z isomer [3]: minimal thermal interconversion at room temperature
